In US8138188B2, “Melanocortin type 4 receptor agonist piperidinoylpyrrolidines” (Pfizer Inc., priority 2006, dated 2012):

Experiments:
[1] = In vitro metabolism rate determination, rat liver microsome (RLM) assay; assay type: in vitro ADME; details: rat liver microsomes, substrate 1 μM; read-out: RLM (intrinsic clearance)
Excerpt: In vitro Metabolism Rate Determination (Human Liver Microsome (HLM); Rat Liver Microsome (RLM) Assay)
Many drugs are metabolised by the cytochrome P450 mono-oxygenase system. This enzyme is found in high concentrations in the liver and is bound to the endoplasmic reticulum of the hepatocyte. The enzyme system can be obtained in semi-purified state by the preparation of the hepatic microsomal fractions. Determining a compound's in vitro half-life in such a system provides a useful indicator of metabolic stability.
Methodology For In Vitro Rate Determination Using Hepatic & Supermix Microsomes
The method outlined below is for a total incubation volume of 1.5 ml.
1. The following mixture is prepared in a test tube:
2. Defrost microsomes at room temperature and add sufficient microsomes to give a final concentration of 0.5 nmol cytochrome P450/ml of incubation e.g. for a 1.5 ml incubation, the volume of microsomes to be added is:
[formula] 3. Add sufficient MilliQ water to give a total incubation volume of 1.425 ml. 4. Remove 237.5 μl of incubation mix and place in test tube for PNA positive control. Add 2.5 μl of PNA solution, whirlimix, and put tube into a rack in the thermostatically controlled shaking water bath 5. Remove 100 μl for no substrate control and dispense in test tube. Place test tube in a rack in the thermostatically controlled shaking water bath. 6. Add substrate to the incubation. The substrate should be at an initial concentration of 1 μM. The volume of substrate required in the remaining 1.162.5 ml incubation is calculated as follows:
[formula] • N.B. The volume of organic solvent added should not exceed 0.1% of the total incubation volume. 7. Remove 100 μl of incubation mix into test tube for no cofactor control. Whirlimix and put into a rack in the thermostatically controlled shaking water bath. 8. Pre-incubate the tube containing the incubation mix, also positive control and no cofactor tubes in the thermostatically controlled shaking water bath set at 37° C. for approx 5 min. 9. Add NADP to initiate reaction (75 μl to each 1.162.5 ml incubation mix, 12.5 μl to positive control tube and 5 μl to no substrate tube) and take first time point immediately. The PNA positive control, no cofactor control and no substrate tubes are incubated for the total incubation time. 10. Remove 100 μl aliquots up to 9 different sampling points from 0 to 60 min (usually 0, 3, 5, 10, 15, 20, 30, 45 & 60 min) and terminate reaction. Longer incubation times can be used, but, after 120 min the microsomes deteriorate. The reaction may be terminated by addition of organic solvent, acid or base. At the end of the incubation process the no cofactor and no substrate controls in a similar manner i.e. terminate with the same reagent. 11. PNA Positive Control Procedure: • After the final sample has been taken, remove the positive control and add 1 ml 20% TCA to this tube. Also prepare a tube containing 250 μl of a PNP standard at 50 μM, and add 1 ml 20% TCA. Whirlimix both tubes and leave for approx 5 min to allow the protein to precipitate. • Centrifuge both tubes for approx 5 min in an instrument set at 3500 rpm. Remove 1 ml of supernatant and place into clean test tubes, discard the remainder. • Add 1 ml 10M NaOH to the supernatant, whirlimix, and leave to stand for approx min. Blank spectrophotometer with distilled water at 400 nm then measure absorbance of the PNP standard against distilled water. The microsomal 4-nitroanisole O-demethylase activity is calculated as follows: Calculation of Results
[formula] • The activity value from the incubation MUST be equal to or greater than 85% of the mean value of the batch used for the incubation to be valid. If this criteria is not met, then the incubation must be repeated. 11. Analyse samples (including no cofactor and no substrate control) by a specific assay for the substrate to determine the disappearance kinetics. Analysis Of Data […]

MC4 receptor (MC4R) = target: T1, MC4 receptor (MC4R) (Homo sapiens, UniProt P32245); assay: AGRP inhibition: competition binding vs [125I]AGRP(87-132) at CHO-CRE MC4R cell membranes; details: vs 0.3 nM [125I]AGRP(87-132)
T1 construct: expressed in transfected cells; host or cells: CHO-CRE MC4R cells (membranes)
Excerpt: Agouti related protein (AGRP) is a high affinity endogenous antagonist/inverse agonist for the MC4 receptor (Lu et al., 1994, Nature 371: 799-802; Oilman et al., 1997, Science 278: 135-138). […] It has been ascertained that this C-terminal fragment of AGRP contains the MC4R binding determinants (Yang et al., 1999, Mol Endocrinol 13: 148-155), therefore, compounds can be evaluated for their ability to inhibit AGRP binding to membranes from cells expressing the MC4R using a competition binding assay versus [^125I]AGRP(87-132). To this end cells expressing the MC4R were subject to homogenisation and the membrane fragment isolated by differential centrifugation. CHO-CRE MC4R cell membranes (12 μg protein) were incubated with 0.3 nM [^125I]AGRP(87-132) and 11 half-log concentrations of competitor ligand, in duplicate, in a total volume of 100 μl buffer (25 mM HEPES, 1 mM MgCl2, 2.5 mM CaCl2, 0.5% BSA pH 7.0). Non-specific binding was determined by the inclusion of 1 μM SHU9119. The reaction was initiated by the addition of membranes and plates were incubated at room temperature for 2 hours. The reaction was terminated by rapid filtration onto GF/C filters (presoaked in 1% PEI) using a vacuum harvester followed by five 200 μl washes of ice cold wash buffer (Binding buffer containing 500 mM NaCl). The filters were soaked in 50 μl scintillation fluid and the amount of radioactivity present was determined by liquid scintillation counting. Ki values were determined by data analysis using appropriate software.

T1 sequence (P32245 whole entry): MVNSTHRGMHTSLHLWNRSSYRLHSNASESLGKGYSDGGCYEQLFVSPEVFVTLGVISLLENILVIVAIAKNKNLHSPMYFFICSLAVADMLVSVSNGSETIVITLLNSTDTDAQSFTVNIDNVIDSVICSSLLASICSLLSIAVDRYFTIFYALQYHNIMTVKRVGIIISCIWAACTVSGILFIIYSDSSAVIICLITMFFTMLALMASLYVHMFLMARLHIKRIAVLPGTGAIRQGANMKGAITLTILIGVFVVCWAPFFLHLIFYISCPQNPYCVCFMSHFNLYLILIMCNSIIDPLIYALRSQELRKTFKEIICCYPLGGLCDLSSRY

| microsomal CLint at 1 μM [1] | Ki (MC4 receptor (MC4R)) | Structure (SMILES) |
| --- | --- | --- |
| < 8.5 µL/min/mg | 39 nM | C[C@@H]1CN(C(=O)[C@@H]2CN(c3ccc(C#N)cn3)C[C@H]2c2ccc(Cl)cn2)C[C@H](C)[C@@]1(O)c1ccc(F)cc1 [Example 1, 6-[(3S,4S)-3-(5-Chloropyridin-2-yl)-4-{[(3R,4R,5S)-4-(4-fluorophenyl)-4-hydroxy-3,5-dimethylpiperidin-1-yl]carbonyl}pyrrolidin-1-yl]nicotinonitrile] |
| 31 µL/min/mg | 59 nM | C[C@@H]1CN(C(=O)[C@@H]2CN(c3ccc(C#N)nn3)C[C@H]2c2ccc(Cl)cn2)C[C@H](C)[C@@]1(O)c1ccc(F)cc1 [Example 2, 6-[(3S,4S)-3-(5-Chloropyridin-2-yl)-4-{[(3R,4R,5S)-4-(4-fluorophenyl)-4-hydroxy-3,5-dimethylpiperidin-1-yl]carbonyl}pyrrolidin-1-yl]pyridazine-3-carbonitrile] |
| 74 µL/min/mg | 51 nM | COc1ccc(N2C[C@@H](C(=O)N3C[C@@H](C)[C@](O)(c4ccc(F)cc4)[C@@H](C)C3)[C@H](c3ccc(Cl)cn3)C2)nn1 [Example 4, (3R,4R,5S)-1-{[(3S,4S)-4-(5-chloropyridin-2-yl)-1-(6-methoxypyridazin-3-yl)pyrrolidin-3-yl]carbonyl}-4-(4-fluorophenyl)-3,5-dimethylpiperidin-4-ol] |
| 27 µL/min/mg | 552 nM | C[C@@H]1CN(C(=O)[C@@H]2CN(c3ccc(Cl)nn3)C[C@H]2c2ccc(F)cn2)C[C@H](C)[C@@]1(O)c1ccc(Cl)cc1 [Example 5, (3R,4R,5S)-4-(4-chlorophenyl)-1-{[(3S,4S)-1-(6-chloropyridazin-3-yl)-4-(5-fluoropyridin-2-yl)pyrrolidin-3-yl]carbonyl}-3,5-dimethylpiperidin-4-ol] |
| < 8.5 µL/min/mg | 456 nM | C[C@@H]1CN(C(=O)[C@@H]2CN(c3ccc(=O)[nH]n3)C[C@H]2c2ccc(F)cn2)C[C@H](C)[C@@]1(O)c1ccc(Cl)cc1 [Example 6, 6-[(3S,4S)-3-{[(3R,4R,5S)-4-(4-chlorophenyl)-4-hydroxy-3,5-dimethylpiperidin-1-yl]carbonyl}-4-(5-fluoropyridin-2-yl)pyrrolidin-1-yl]pyridazin-3(2H)-one] |
| 11 µL/min/mg | 714 nM | C[C@@H]1CN(C(=O)[C@@H]2CN(c3ccc(=O)n(C)n3)C[C@H]2c2ccc(F)cn2)C[C@H](C)[C@@]1(O)c1ccc(Cl)cc1 [Example 7, 6-[(3S,4S)-3-{[(3R,4R,5S)-4-(4-chlorophenyl)-4-hydroxy-3,5-dimethylpiperidin-1-yl]carbonyl}-4-(5-fluoropyridin-2-yl)pyrrolidin-1-yl]-2-methylpyridazin-3(2H)-one] |
| > 510 µL/min/mg | 643 nM | C[C@@H]1CN(C(=O)[C@@H]2CN(c3cncc(F)c3)C[C@H]2c2ccc(Cl)cn2)C[C@H](C)[C@@]1(O)c1ccccn1 [Example 8, (3R,4R,5S)-1-{[(3S,4S)-4-(5-chloropyridin-2-yl)-1-(5-fluoropyridin-3-yl)pyrrolidin-3-yl]carbonyl}-3,5-dimethyl-4-pyridin-2-ylpiperidin-4-ol] |
| 411 µL/min/mg | 523 nM | C[C@@H]1CN(C(=O)[C@@H]2CN(c3cccnn3)C[C@H]2c2ccc(Cl)cn2)C[C@H](C)[C@@]1(O)c1ccccn1 [Example 9, (3R,4R,5S)-1-{[(3S,4S)-4-(5-chloropyridin-2-yl)-1-pyridazin-3-ylpyrrolidin-3-yl]carbonyl}-3,5-dimethyl-4-pyridin-2-ylpiperidin-4-ol] |
| 42 µL/min/mg | 223 nM | C[C@@H]1CN(C(=O)[C@@H]2CN(c3ccc(=O)n(C)n3)C[C@H]2c2ccc(Cl)cn2)C[C@H](C)[C@@]1(O)c1ccc(Cl)cn1 [Example 10] |
| < 8.5 µL/min/mg | 251 nM | COc1ccc(C2CN(c3ccc(C#N)nn3)CC2C(=O)N2CC(C)C(O)(c3ccc(F)cc3)C(C)C2)cn1 (centres unmarked) [Example 16] |
| > 510 µL/min/mg | 20 nM | C[C@@H]1CN(C(=O)[C@@H]2CN(c3ccc(=O)n(C)n3)C[C@H]2c2ccc(Cl)cn2)C[C@H](C)[C@@]1(O)C1CCCCC1 [Example 17] |
| 68 µL/min/mg | 965 nM | C[C@@H]1CN(C(=O)[C@@H]2CN(c3ccc(=O)n(C)n3)C[C@H]2c2ccc(Cl)cn2)C[C@H](C)[C@@]1(O)C1CC1 [Example 18] |
| 21 µL/min/mg | 79 nM | CC1CN(C(=O)C2CN(c3ccc(=O)n(C)n3)CC2c2ccc(Cl)cn2)CC(C)C1(O)c1ccc(F)c(F)c1 (centres unmarked) [Example 19] |
| 51.5 µL/min/mg | 253 nM | COc1ccc(C2(O)C(C)CN(C(=O)C3CN(c4ccc(=O)n(C)n4)CC3c3ccc(Cl)cn3)CC2C)cc1 (centres unmarked) [Example 20] |
| 58.5 µL/min/mg | 66 nM | CC1CN(C(=O)C2CN(c3ccc(=O)n(C)n3)CC2c2ccc(Cl)cn2)CC(C)C1(O)c1ccccc1 (centres unmarked) [Example 21] |
| 96 µL/min/mg | 5960 nM | C[C@@H]1CN(C(=O)[C@@H]2CN(c3ccc(=O)n(C)n3)C[C@H]2c2ccc(Cl)cn2)C[C@H](C)[C@@]1(O)c1ccccn1 [Example 22] |
| < 8.5 µL/min/mg | 79 nM | CC1CN(C(=O)C2CN(c3ccc(=O)n(C)n3)CC2c2ccc(Cl)cn2)CC(C)C1(O)c1ccc(Cl)cc1 (centres unmarked) [Example 23] |
| > 510 µL/min/mg | > 955 nM | CC1CN(C(=O)C2CN(c3cncc(F)c3)CC2c2ccc(Cl)cn2)CC(C)C1(O)C1CC1 (centres unmarked) [Example 24] |
| 172 µL/min/mg | 278 nM | CC1CN(C(=O)C2CN(c3cncc(F)c3)CC2c2ccc(Cl)cn2)CC(C)C1(O)c1ccc(F)cc1 (centres unmarked) [Example 25] |
| > 510 µL/min/mg | 363 nM | COc1ccc(N2CC(C(=O)N3CC(C)C(O)(C4CC4)C(C)C3)C(c3ccc(Cl)cn3)C2)nn1 (centres unmarked) [Example 26] |
| 31 µL/min/mg | 100 nM | CC1CN(C(=O)C2CN(c3ccc(=O)[nH]n3)CC2c2ccc(Cl)cn2)CC(C)C1(O)c1ccccc1 (centres unmarked) [Example 27] |
| 51 µL/min/mg | 516 nM | C[C@@H]1CN(C(=O)[C@@H]2CN(c3ccc(=O)[nH]n3)C[C@H]2c2ccc(Cl)cn2)C[C@H](C)[C@@]1(O)c1ccccn1 [Example 28] |
| 69.5 µL/min/mg | 112 nM | CC1CN(C(=O)C2CN(c3ccc(C#N)nn3)CC2c2ccc(Cl)cn2)CC(C)C1(O)c1ccccn1 (centres unmarked) [Example 30] |
| – | 248 nM | COc1ccc([C@@H]2CN(c3ccc(C#N)nn3)C[C@H]2C(=O)N2C[C@@H](C)[C@](O)(c3ccc(F)cc3)[C@@H](C)C2)nc1 [Example 43] |
